Earlier results, collected in PubChem BioAssay AID1259409 (Chemical Carcinogenesis Research Information System (CCRIS), 2018).

System: rodent chemically induced tumor inhibition, incidence and multiplicity
Experiment: CCRIS tumor inhibitor studies

C=Cc1c(C)c2[n-]c1=CC1=NC(=CC3=C(C)C(=C([O-])[O-])C(=N3)C(CC(=O)[O-])=C3N=C(C=2)C(C)C3CCC(=O)[O-])C(CC)=C1C.[Cu+2].[Na+].[Na+].[Na+] (stereo not drawn)
tumour outcome (control, treated, inhibition, significance) (Carcinogen: 2,2'-DIHYDROXY-DI-N-PROPYLNITROSAMINE, 53609-64-6, N-ETHYL-N-HYDROXYETHYLNITROSAMINE, 13147-25-6, 3,2'-DIMETHYL-1,4-, Carcinogen: 2,2'-DIHYDROXY-DI-N-PROPYLNITROSAMINE, 53609-64-6, N-ETHYL-N-HYDROXYETHYLNITROSAMINE, 13147-25-6, 3,2'-DIMETHYL-1,4-, Dose [Inhibitor]: 0, 1% IN DIET FOR 4 WK BEGINNING 1 D PRIOR TO FIRST CARCINOGEN DOSE (STUDY DURATION: 36 WK), Route [Inhibitor]: ORAL, Species: RAT, Strain/Sex: F344/MALE, Target Tissue: Type of Lesion: KIDNEY: ADENOMA, Dose [Carcinogen]: 1000 MG/KG BW DHPN TWICE, 1500 MG/KG EHEN TWICE, 75 MG/KG BW DMAB 3 TIMES, SEQUENTIALLY OVER 3 WK, Promoter: NONE USED): 6/10 (60%), 6/13 (46%), 23%, not significant | tumour outcome (control, treated, inhibition, significance) (Carcinogen: 2,2'-DIHYDROXY-DI-N-PROPYLNITROSAMINE, 53609-64-6, N-ETHYL-N-HYDROXYETHYLNITROSAMINE, 13147-25-6, 3,2'-DIMETHYL-1,4-, Carcinogen: 2,2'-DIHYDROXY-DI-N-PROPYLNITROSAMINE, 53609-64-6, N-ETHYL-N-HYDROXYETHYLNITROSAMINE, 13147-25-6, 3,2'-DIMETHYL-1,4-, Dose [Inhibitor]: 0, 1% IN DIET FOR 4 WK BEGINNING 1 D PRIOR TO FIRST CARCINOGEN DOSE (STUDY DURATION: 36 WK), Route [Inhibitor]: ORAL, Species: RAT, Strain/Sex: F344/MALE, Target Tissue: Type of Lesion: LUNG: ADENOMA, Dose [Carcinogen]: 1000 MG/KG BW DHPN TWICE, 1500 MG/KG EHEN TWICE, 75 MG/KG BW DMAB 3 TIMES, SEQUENTIALLY OVER 3 WK, Promoter: NONE USED): 5/10 (50%), 8/13 (62%), -24%, not significant | tumour outcome (control, treated, inhibition, significance) (Carcinogen: 2-AMINO-1-METHYL-6-PHENYLIMIDAZO[4,5-B]PYRIDINE, 105650-23-5, Dose [Inhibitor]: 0, 1% IN DIET FOR 54 WK (STUDY DURATION: 54 WK), Route [Inhibitor]: ORAL, Species: RAT, Strain/Sex: F344/FEMALE, Target Tissue: Type of Lesion: COLON: ADENOMA, Dose [Carcinogen]: 0.02% IN DIET FOR 54 WK, Promoter: NONE USED): 2/20 (10%), 4/20 (20%), -100%, not significant | tumour outcome (control, treated, inhibition, significance) (Carcinogen: 2-AMINO-1-METHYL-6-PHENYLIMIDAZO[4,5-B]PYRIDINE, 105650-23-5, Dose [Inhibitor]: 0, 1% IN DIET FOR 54 WK (STUDY DURATION: 54 WK), Route [Inhibitor]: ORAL, Species: RAT, Strain/Sex: F344/FEMALE, Target Tissue: Type of Lesion: MAMMARY GLAND: ADENOCARCINOMA, Dose [Carcinogen]: 0.02% IN DIET FOR 54 WK, Promoter: NONE USED): 8/20 (40%), 3/20 (15%), 63%, not significant | tumour outcome (control, treated, inhibition, significance) (Carcinogen: 2-AMINO-1-METHYL-6-PHENYLIMIDAZO[4,5-B]PYRIDINE, 105650-23-5, Dose [Inhibitor]: 0, 1% IN DIET FOR 54 WK (STUDY DURATION: 54 WK), Route [Inhibitor]: ORAL, Species: RAT, Strain/Sex: F344/FEMALE, Target Tissue: Type of Lesion: MAMMARY GLAND: FIBROADENOMA, Dose [Carcinogen]: 0.02% IN DIET FOR 54 WK, Promoter: NONE USED): 2/20 (10%), 0/20 (0%), 100%, not significant | tumour outcome (control, treated, inhibition, significance) (Carcinogen: 7,12-DIMETHYLBENZ[A]ANTHRACENE [57-97-6], Dose [Inhibitor]: 0.5% IN 0.2 ML DMSO/ACETONE (15:85) 1 D PRIOR TO CARCINOGEN DOSE (STUDY DURATION: 31 WK), Route [Inhibitor]: DERMAL, Species: MOUSE, Strain/Sex: ICR/FEMALE, Target Tissue: Type of Lesion: SKIN: TUMOR, Dose [Carcinogen]: 0.2 UMOL ONCE (STUDY DURATION: 31 WK), Promoter: 12-O-TETRADECANOYLPHORBOL-13-ACETATE [16561-29-8]): 100%, 87%, 13%, not significant | tumour outcome (control, treated, inhibition, significance) (Carcinogen: 7,12-DIMETHYLBENZ[A]ANTHRACENE [57-97-6], Dose [Inhibitor]: 0.5% IN 0.2 ML DMSO/ACETONE (15:85) 1 D PRIOR TO CARCINOGEN DOSE AND 10 MIN PRIOR TO EACH PROMOTER DOSE FOR 30 WK (STUDY, Route [Inhibitor]: DERMAL, Species: MOUSE, Strain/Sex: ICR/FEMALE, Target Tissue: Type of Lesion: SKIN: TUMOR, Dose [Carcinogen]: 0.2 UMOL ONCE (STUDY DURATION: 31 WK), Promoter: 12-O-TETRADECANOYLPHORBOL-13-ACETATE [16561-29-8]): 100%, 27%, 73%, p<0.005 | tumour outcome (control, treated, inhibition, significance) (Carcinogen: 7,12-DIMETHYLBENZ[A]ANTHRACENE [57-97-6], Dose [Inhibitor]: 0.5% IN 0.2 ML DMSO/ACETONE (15:85) 10 MIN PRIOR TO EACH PROMOTER DOSE FOR 30 WK (STUDY DURATION: 30 WK), Route [Inhibitor]: DERMAL, Species: MOUSE, Strain/Sex: ICR/FEMALE, Target Tissue: Type of Lesion: SKIN: TUMOR, Dose [Carcinogen]: 0.2 UMOL ONCE (STUDY DURATION: 30 WK), Promoter: 12-O-TETRADECANOYLPHORBOL-13-ACETATE [16561-29-8]): 100%, 40%, 60%, p<0.005 | tumour outcome (control, treated, inhibition, significance) (Carcinogen: BENZO[A]PYRENE-7,8-DIHYDRODIOL-9,10-EPOXIDE, 58917-67-2, Dose [Inhibitor]: 0, 15 MG/KG BW ONCE 30 MIN PRIOR TO CARCINOGEN DOSE (STUDY DURATION: 24 WK), Route [Inhibitor]: GAVAGE, Species: MOUSE, Strain/Sex: ICR/FEMALE, Target Tissue: Type of Lesion: SKIN: PAPILLOMA, Dose [Carcinogen]: 0.1 UMOL ONCE, Promoter: 12-O-TETRADECANOYLPHORBOL-13-ACETATE, 16561-29-8): 98%, 70%, 29%, not calculated | tumour outcome (control, treated, inhibition, significance) (Carcinogen: BENZO[A]PYRENE, 50-32-8, Dose [Inhibitor]: 0, 15 MG/KG BW ONCE 30 MIN PRIOR TO CARCINOGEN DOSE (STUDY DURATION: 40 WK), Route [Inhibitor]: GAVAGE, Species: MOUSE, Strain/Sex: ICR/FEMALE, Target Tissue: Type of Lesion: SKIN: PAPILLOMA, Dose [Carcinogen]: 0.3 UMOL ONCE, Promoter: 12-O-TETRADECANOYLPHORBOL-13-ACETATE, 16561-29-8): 97%, 78%, 20%, not calculated | tumour outcome (control, treated, inhibition, significance) (Carcinogen: DIETHYLNITROSAMINE, 55-18-5, Dose [Inhibitor]: 0, 2000 PPM IN DIET FOR 4 WK DURING INITIATION (STUDY DURATION: 24 WK), Route [Inhibitor]: ORAL, Species: RAT, Strain/Sex: F344/MALE, Target Tissue: Type of Lesion: LIVER: ADENOMA, Dose [Carcinogen]: 100 MG/KG BW 1/WK FOR 3 WK, Promoter: PHENOBARBITAL, 50-06-6): 95%, 70%, 26%, p<0.05 | tumour outcome (control, treated, inhibition, significance) (Carcinogen: DIETHYLNITROSAMINE, 55-18-5, Dose [Inhibitor]: 0, 2000 PPM IN DIET FOR 4 WK DURING INITIATION (STUDY DURATION: 24 WK), Route [Inhibitor]: ORAL, Species: RAT, Strain/Sex: F344/MALE, Target Tissue: Type of Lesion: LIVER: CARCINOMA, Dose [Carcinogen]: 100 MG/KG BW 1/WK FOR 3 WK, Promoter: PHENOBARBITAL, 50-06-6): 70%, 60%, 14%, not significant | tumour outcome (control, treated, inhibition, significance) (Carcinogen: DIETHYLNITROSAMINE, 55-18-5, Dose [Inhibitor]: 0, 2000 PPM IN DIET FOR 20 WK BEGINNING 1 WK POST CARCINOGEN TREATMENT (STUDY DURATION: 24 WK), Route [Inhibitor]: ORAL, Species: RAT, Strain/Sex: F344/MALE, Target Tissue: Type of Lesion: LIVER: ADENOMA, Dose [Carcinogen]: 100 MG/KG BW 1/WK FOR 3 WK, Promoter: NONE USED): 13%, 13%, 0%, not significant | tumour outcome (control, treated, inhibition, significance) (Carcinogen: DIETHYLNITROSAMINE, 55-18-5, Dose [Inhibitor]: 0, 2000 PPM IN DIET FOR 20 WK BEGINNING 1 WK POST CARCINOGEN TREATMENT (STUDY DURATION: 24 WK), Route [Inhibitor]: ORAL, Species: RAT, Strain/Sex: F344/MALE, Target Tissue: Type of Lesion: LIVER: ADENOMA, Dose [Carcinogen]: 100 MG/KG BW 1/WK FOR 3 WK, Promoter: PHENOBARBITAL, 50-06-6): 95%, 63%, 34%, p<0.02 | tumour outcome (control, treated, inhibition, significance) (Carcinogen: DIETHYLNITROSAMINE, 55-18-5, Dose [Inhibitor]: 0, 2000 PPM IN DIET FOR 20 WK BEGINNING 1 WK POST CARCINOGEN TREATMENT (STUDY DURATION: 24 WK), Route [Inhibitor]: ORAL, Species: RAT, Strain/Sex: F344/MALE, Target Tissue: Type of Lesion: LIVER: CARCINOMA, Dose [Carcinogen]: 100 MG/KG BW 1/WK FOR 3 WK, Promoter: NONE USED): 29%, 31%, -7%, not significant | tumour outcome (control, treated, inhibition, significance) (Carcinogen: DIETHYLNITROSAMINE, 55-18-5, Dose [Inhibitor]: 0, 2000 PPM IN DIET FOR 20 WK BEGINNING 1 WK POST CARCINOGEN TREATMENT (STUDY DURATION: 24 WK), Route [Inhibitor]: ORAL, Species: RAT, Strain/Sex: F344/MALE, Target Tissue: Type of Lesion: LIVER: CARCINOMA, Dose [Carcinogen]: 100 MG/KG BW 1/WK FOR 3 WK, Promoter: PHENOBARBITAL, 50-06-6): 70%, 63%, 10%, not significant | tumour outcome (control, treated, inhibition, significance) (Dose [Inhibitor]: 0, 500 PPM IN DIET FOR 2 WK ADMINISTERED WITH CARCINOGEN (STUDY DURATION: 9 MO), Route [Inhibitor]: ORAL, Species: FISH, Strain/Sex: RAINBOW TROUT/MALE, FEMALE, Target Tissue: Type of Lesion: LIVER: TUMOR, Promoter: NONE USED): 16%, 12%, 25%, p=0.29 | tumour outcome (control, treated, inhibition, significance) (Dose [Inhibitor]: 0, 500 PPM IN DIET FOR 2 WK ADMINISTERED WITH CARCINOGEN (STUDY DURATION: 9 Mo), Route [Inhibitor]: ORAL, Species: FISH, Strain/Sex: RAINBOW TROUT/MALE, FEMALE, Target Tissue: Type of Lesion: LIVER: TUMOR, Promoter: NONE USED): 7%, 3%, 57%, p=0.04
